In ChEMBL document CHEMBL3612000, “Synthesis, leishmanicidal, trypanocidal and cytotoxic activity of quinoline-hydrazone hybrids” (Eur J Med Chem, 2015):
≈ marks a conversion by molar mass, not a printed value.

Legend:
Trypanosoma cruzi [1] = experiment: Trypanocidal activity against intracellular amastigotes of Trypanosoma cruzi Tulahuen infected in human U937 cells assessed as reduction of viability of intracellular amastigotes by measuring beta-galactosidase activity after 72 hrs by spectrophotometry analysis; format: functional, organism-based; details: U-937, 72 h
Trypanosoma cruzi [2] = experiment: Trypanocidal activity against intracellular amastigotes of Trypanosoma cruzi Tulahuen infected in human U937 cells assessed as reduction of viability of intracellular amastigotes by measuring beta-galactosidase activity at 20 ug/ml after 72 hrs by spectrophotometry analysis; format: functional; details: U-937, 72 h
[3] = Selectivity index, ratio of LC50 for human U937 cells to EC50 for intracellular amastigotes of Trypanosoma cruzi Tulahuen; format: toxicity, cell-based, U-937
Leishmania panamensis [4] = experiment: Leishmanicidal activity against intracellular amastigotes of Leishmania (Viannia) panamensis MHOM/CO/87/UA140pIR-GFP infected in human U937 cells assessed as decrease of intracellular parasite load at 10 ug/ml after 72 hrs; format: functional
[5] = (§1) Cytotoxicity against human U937 cells assessed as cell viability after 72 hrs by MTT assay; format: cell-based, U-937; details: U937 cells, read-out: LC50
Leishmania panamensis [6] = experiment: Leishmanicidal activity against intracellular amastigotes of Leishmania (Viannia) panamensis MHOM/CO/87/UA140pIR-GFP infected in human U937 cells assessed as decrease of intracellular parasite load at 20 ug/ml after 72 hrs; format: functional; details: U-937, 72 h
Leishmania panamensis [7] = experiment: Leishmanicidal activity against intracellular amastigotes of Leishmania (Viannia) panamensis MHOM/CO/87/UA140pIR-GFP infected in human U937 cells assessed as decrease of intracellular parasite load after 72 hrs; format: functional, organism-based, U-937
[8] = Selectivity index, ratio of LC50 for human U937 cells to EC50 for intracellular amastigotes of Leishmania (Viannia) panamensis MHOM/CO/87/UA140pIR-GFP; format: toxicity, cell-based, U-937
Leishmania panamensis [9] = experiment: Leishmanicidal activity against intracellular amastigotes of Leishmania (Viannia) panamensis MHOM/CO/87/UA140pIR-GFP infected in human U937 cells assessed as decrease of intracellular parasite load at 5 ug/ml after 72 hrs; format: functional; details: U-937, 72 h
Trypanosoma cruzi [10] = experiment: Trypanocidal activity against intracellular amastigotes of Trypanosoma cruzi Tulahuen infected in human U937 cells assessed as reduction of viability of intracellular amastigotes by measuring beta-galactosidase activity at 10 ug/ml after 72 hrs by spectrophotometry analysis; format: functional; details: U-937, 72 h
Leishmania major = experiment: Antileishmanial activity against Leishmania major; format: functional, organism-based
Leishmania panamensis [11] = experiment: Leishmanicidal activity against intracellular amastigotes of Leishmania (Viannia) panamensis MHOM/CO/87/UA140pIR-GFP infected in human U937 cells assessed as decrease of intracellular parasite load at 0.05 ug/ml after 72 hrs; format: functional; details: U-937, 72 h
Leishmania panamensis [12] = experiment: Leishmanicidal activity against intracellular amastigotes of Leishmania (Viannia) panamensis MHOM/CO/87/UA140pIR-GFP infected in human U937 cells assessed as decrease of intracellular parasite load at 1 ug/ml after 72 hrs; format: functional; details: U-937, 72 h
Trypanosoma cruzi [13] = experiment: Trypanocidal activity against intracellular amastigotes of Trypanosoma cruzi Tulahuen infected in human U937 cells assessed as reduction of viability of intracellular amastigotes by measuring beta-galactosidase activity at 5 ug/ml after 72 hrs by spectrophotometry analysis; format: functional; details: U-937, 72 h
U-937 = experiment: as §1; format: cell-based; details: u-937, 72 h, read-out: LC50 (the source's name)
[14] = Leishmania panamensis, MHOM/CO/87/UA140pIR-GFP, U-937, 72 h, read-out: EC50

## O=C(Cn1ccnc1[N+](=O)[O-])NCc1ccccc1 [BENZNIDAZOLE]
Trypanosoma cruzi [1]
  EC50: 10.5 µg/mL (≈ 40.3 µM)
Trypanosoma cruzi [2]
  inhibition at 20 µg/mL: 87.6%
[3]
  selectivity ratio: 17

## O=C(N/N=C/c1cccc(O)c1O)c1ccnc2ccccc12
Leishmania panamensis [4]; U-937, 72 h
  inhibition at 10 µg/mL: 47.4%
Trypanosoma cruzi [2]
  inhibition at 20 µg/mL: 27.4%
[5]
  CC50 at 72 h: 47.5 µM

## O=C(N/N=C/c1cccc(O)c1O)c1ccc2ccccc2n1
Leishmania panamensis [6]
  inhibition at 20 µg/mL: 75.7%
Trypanosoma cruzi [2]
  inhibition at 20 µg/mL: 31%
[5]
  CC50 at 72 h: 99.6 µM
Leishmania panamensis [7]; [14]
  EC50: 6.5 µg/mL (≈ 21.2 µM)
[8]
  selectivity ratio: 4.7

## O=C(N/N=C/c1ccc(O)c(O)c1O)c1ccc2ccccc2n1
Leishmania panamensis [6]
  inhibition at 20 µg/mL: 68.2%
Trypanosoma cruzi [2]
  inhibition at 20 µg/mL: 36.1%
[5]
  CC50 at 72 h: 221 µM
Leishmania panamensis [7]; [14]
  EC50: 15.4 µg/mL (≈ 47.6 µM)
[8]
  selectivity ratio: 4.6

## O=C(N/N=C/c1ccc(O)cc1O)c1nccc2ccccc12
Leishmania panamensis [9]
  inhibition at 5 µg/mL: 62.6%
[5]
  CC50 at 72 h: 28.6 µM
Leishmania panamensis [7]; [14]
  EC50: 3.4 µg/mL (≈ 11.1 µM)
[8]
  selectivity ratio: 2.6

## O=C(N/N=C/c1ccc(O)cc1O)c1ccnc2ccccc12
Trypanosoma cruzi [1]
  EC50: 20.8 µg/mL (≈ 67.7 µM)
[5]
  CC50 at 72 h: 34.5 µM
Trypanosoma cruzi [10]
  inhibition at 10 µg/mL: 27.7%
[3]
  selectivity ratio: 0.5

## O=C(N/N=C/c1cc(O)ccc1O)c1ccc2ccccc2n1
Leishmania panamensis [6]
  inhibition at 20 µg/mL: 64%
Trypanosoma cruzi [2]
  inhibition at 20 µg/mL: 24%
[5]
  CC50 at 72 h: 159 µM
Leishmania panamensis [7]; [14]
  EC50: 37.2 µg/mL (≈ 121 µM)
[8]
  selectivity ratio: 2.8

## CCN(CC)NC(=O)c1ccc(OCc2ccccc2)cc1
Leishmania major
  IC50: 21 µM

## C[C@@H]1[C@H](O)[C@@H](C)/C=C/C=C/C=C/C=C/C=C/C=C/C=C/[C@H](O[C@@H]2O[C@H](C)[C@@H](O)[C@H](N)[C@@H]2O)C[C@@H]2O[C@](O)(C[C@@H](O)C[C@@H](O)[C@H](O)CC[C@@H](O)C[C@@H](O)CC(=O)O[C@H]1C)C[C@H](O)[C@H]2C(=O)O [AMPHOTERICIN B]
[5]
  CC50 at 72 h: 45.6 µM
Leishmania panamensis [11]
  inhibition at 0.05 µg/mL: 76%
[8]
  selectivity ratio: 1050

## O=C(N/N=C/c1ccc(O)cc1O)c1ccc2ccccc2n1
Trypanosoma cruzi [1]
  EC50: 6.6 µg/mL (≈ 21.5 µM)
Leishmania panamensis [12]
  inhibition at 1 µg/mL: 64.7%
Trypanosoma cruzi [13]
  inhibition at 5 µg/mL: 41.5%
[5]
  CC50 at 72 h: 11.7 µM
Leishmania panamensis [7]; [14]
  EC50: 0.8 µg/mL (≈ 2.6 µM)
[3]
  selectivity ratio: 0.5
[8]
  selectivity ratio: 4.5

## MEGLUMINE ANTIMONATE [listing 1 of 2 here]
Leishmania panamensis [4]; U-937
  inhibition: 79.4%

## O=C(N/N=C/c1cc(O)ccc1O)c1ccnc2ccccc12
Leishmania panamensis [6]
  inhibition at 20 µg/mL: 26.1%
Trypanosoma cruzi [2]
  inhibition at 20 µg/mL: 20.7%
[5]
  CC50 at 72 h: > 651 µM

## O=C(N/N=C/c1ccccc1O)c1ccc2ccccc2n1
Leishmania panamensis [6]
  inhibition at 20 µg/mL: 16.8%
Trypanosoma cruzi [1]
  EC50: 1.4 µg/mL (≈ 4.81 µM)
Trypanosoma cruzi [13]
  inhibition at 5 µg/mL: 50.4%
[5]
  CC50 at 72 h: 56 µM
[3]
  selectivity ratio: 11.6

## O=C(N/N=C/c1ccc(O)c(O)c1O)c1ccnc2ccccc12
Leishmania panamensis [6]
  inhibition at 20 µg/mL: 21.3%
Trypanosoma cruzi [2]
  inhibition at 20 µg/mL: 15.7%
[5]
  CC50 at 72 h: 347 µM

## MEGLUMINE ANTIMONATE [listing 2 of 2 here]
U-937
  CC50: 6 µM
Leishmania panamensis [7]; u-937
  EC50: 6.3 µg/mL
[8]; u-937
  Ratio: 78.6
